Measurements reported in patent US20100303934A1, “METHODS AND COMPOSITIONS FOR NERVE REGENERATION” (Oregon Health & Science University, priority 2004, published 2010).

B1: NGF: nerve growth factor (Boehringer Mannheim), 10 ng/mL, used to induce process outgrowth (protein, UniProt P01139 122-241, looked up)
Beta-nerve growth factor: SSTHPVFHMGEFSVCDSVSVWVGDKTTATDIKGKEVTVLAEVNINNSVFRQYFFETKCRASNPVESGCRGIDSKHWNSYCTTTHTFVKALTTDEKQAAWRFIRIDTACVCVLSRKATRRG
modifications: Beta-nerve growth factor
notes: nerve growth factor (Boehringer Mannheim), 10 ng/mL, used to induce process outgrowth

Tests used:
[1] = test system: SH-SY5Y human neuroblastoma cells; experiment: Neurite elongation (neurite outgrowth length) assay in SH-SY5Y cells in the presence of NGF; assay type: cell-based; settings: for Process elongation in micrographs (FIGS. 3-10): SH-SY5Y cells at 168 hours, with NGF; for Activity in the neurite elongation assay (FIG. 17): tested at 1 μm, in the presence of NGF
Procedure: SH-SY5Y human neuroblastoma cells were maintained in DMEM medium (GIBCO) supplemented with 10% fetal calf serum (SIGMA), 50 IU/mL penicillin, and […] streptomycin (GIBCO) at 37° C. in 7% CO2. Cells were plated in six-well plates at 1×10^6 cells/well and treated with […] aphidicolin (SIGMA). At five days, cells were washed, treated with nerve growth factor (NGF) (Boehringer Mannheim, Indianapolis, Ind.) at 10 ng/mL (to induce process outgrowth) in the presence or absence of the Centella asiatica extract and extract fractions (100 μg/mL). […] All experiments were run in duplicate wells and repeated at least twice for reproducibility.
Neurite lengths were measured on photographic prints using a SummaSketch III digitizing tablet connected with Bioquant Classic 95 software (R&M Biometrics, Nashville, Term.); only those processes greater than two times the cell body length were measured. […] Histograms were compared using a Mann-Whitney U test, which makes no assumptions about the shape of the distribution.

[2] = test system: SHSY5Y neuroblastoma cells; experiment: Protection against hydrogen peroxide induced toxicity (CellTiter Blue / LDH); assay type: cell-based, human; settings: positive control, concentration not given; H2O2 125 to 500 μM
Procedure: SHSY5Y neuroblastoma cells were grown in DMEM/F12 medium (from Gibco) containing 10% fetal calf serum (FCS), 100 ug/ml streptomycin sulphate, 100 U/ml penicillin G in a humidified air/5% CO2 chamber at 37 C. The following method was followed: Day1. Plate SHSY5Y cells on 24-well plate at 100,000/well Day4. Remove old medium, add fresh medium with 10 ng/ml NGF. Day5. Add GK, GKW or EGCG (epigallocatechin gallate; a known antioxidant), overnight. Day6. Remove old medium (containing test substances), add fresh medium (2% FCS) with 10 ng/ml NGF. Treat cells with or without H2O2, for 2-3 hours. Remove medium and H2O2, wash 1× with fresh medium with NGF, add fresh medium (2% FCS) with NGF again, incubate overnight. Day7. Harvest supernatant for LDH assay. Add fresh medium and CellTiter Blue reagent (from Promega, containing resazurin) into each well, incubate for 2 hours, read fluorescence under the Fluorometer. @ 560 nm EX/590 nm EM, cut off 590 nm.

Molecule | Process elongation in micrographs (FIGS. 3-10) [1] | Activity in the neurite elongation assay (FIG. 17) [1] | further results
C=CC[C@@H]1/C=C(\C)C[C@H](C)C[C@H](OC)[C@H]2O[C@@](O)(C(=O)C(=O)N3CCCC[C@H]3C(=O)O[C@H](/C(C)=C/[C@@H]3CC[C@@H](O)[C@H](OC)C3)[C@H](C)[C@@H](O)CC1=O)[C@H](C)C[C@@H]2OC [FK506, reference compound] | – | – | Neurite elongation activity in the absence of NGF ([1]; absence of NGF): no activity
C[C@H]1[C@H](C)CC[C@]2(C(=O)O)CC[C@]3(C)C(=CC[C@@H]4[C@@]5(C)C[C@@H](O)[C@H](O)[C@@](C)(CO)[C@@H]5CC[C@]43C)[C@H]12 [asiatic acid] | markedly increased | active | Activity of AA in the presence of the MEK inhibitor PD 098059 ([1]; FIG. 10, 168 hours): prevented; Stimulation of neurite outgrowth elongation ([1]; concentration of 104 (0.5 μg/mL)): considerable stimulation
O=C(O[C@@H]1Cc2c(O)cc(O)cc2O[C@@H]1c1cc(O)c(O)c(O)c1)c1cc(O)c(O)c(O)c1 [EGCG, epigallocatechin gallate] | – | – | Protection against H2O2 toxicity [2]: protective
madecassoside | – | not active | –
C[C@H]1[C@H](C)CC[C@]2(C(=O)O)CC[C@]3(C)C(=CC[C@@H]4[C@@]5(C)C[C@@H](O)[C@H](O)[C@@](C)(CO)[C@@H]5[C@H](O)C[C@]43C)[C@H]12 [madecassic acid] | – | active | –
B1 | demonstrate process elongation | – | Mean neurite length (μm) at 168 h ([1]; test substance 100 μg/mL, in the presence of NGF (10 ng/mL), 168 h): 115 μm
